Measured values: patent US5466671A, “Apidaecin-type peptide antibiotics with improved activities and/or different antibacterial spectrum” (priority 1994, dated 1995)
Residues, ends and D or L forms follow the SMILES beside them.

Columns and labels:
Y. enterocolitica = assay: Minimal inhibitory concentration (liquid culture); conditions: inoculum 5000 CFU/ml; a-b = highest concentration with growth - lowest without growth
E. coli 23802 = assay: Minimal inhibitory concentration (liquid culture); conditions: inoculum 5000 CFU/ml; a-b = highest concentration with growth - lowest without growth
Morganella morganii = assay: Inhibition zone assay (agar plate); assay type: cell-based; conditions: 50 nanomoles/well, 3 mm wells
Klebsiella pneumoniae = assay: Inhibition zone assay (agar plate); assay type: cell-based; conditions: for inhibition zone diameter (number of plus signs): agar plate, 50 nanomoles/well, 3 mm wells
S. typhimurium = assay: Minimal inhibitory concentration (liquid culture); conditions: inoculum 8 × 10^6 CFU/ml; a-b = highest concentration with growth - lowest without growth
Erwinia amylovora = assay: Inhibition zone assay (agar plate); assay type: cell-based; conditions: for inhibition zone diameter (number of plus signs): agar plate, 50 nanomoles/well, 3 mm wells
Shigella dysenteriae = assay type: cell-based
Yersinia enterocolitica = assay: Inhibition zone assay (agar plate); assay type: cell-based; conditions: 50 nanomoles/well, 3 mm wells
Salmonella typhimurium = assay: Inhibition zone assay (agar plate); assay type: cell-based; conditions: for inhibition zone diameter (number of plus signs): agar plate, 50 nanomoles/well, 3 mm wells
M. morganii = assay: Minimal inhibitory concentration (liquid culture); conditions: inoculum 400 CFU/ml; a-b = highest concentration with growth - lowest without growth
A. calcoaceticus = assay: Minimal inhibitory concentration (liquid culture); conditions: inoculum 16 × 10^6 CFU/ml; a-b = highest concentration with growth - lowest without growth
Salmonella typhi = assay type: cell-based; conditions: 50 nanomoles per well (3 mm diameter)
[1] = tested on: Agrobacterium tumefaciens; assay: Inhibition zone assay (agar plate); assay type: cell-based; conditions: for inhibition zone diameter (number of plus signs): agar plate, 50 nanomoles/well, 3 mm wells
E. coli 25922 = assay: Minimal inhibitory concentration (liquid culture); conditions: inoculum 1100 CFU/ml; a-b = highest concentration with growth - lowest without growth
E. coli 11775 = assay: Minimal inhibitory concentration (liquid culture); conditions: for minimal inhibitory concentration (MIC): a-b = highest concentration with growth - lowest without growth
Haemophilus influenzae = assay: Inhibition zone assay (agar plate); assay type: cell-based; conditions: 50 nanomoles/well, 3 mm wells
E. coli D22 = assay type: cell-based; conditions: 50 nanomoles per well (3 mm diameter)
Pseudomonas syringae = assay: Inhibition zone assay (agar plate); assay type: cell-based; conditions: for inhibition zone diameter (number of plus signs): agar plate, 50 nanomoles/well, 3 mm wells
[2] = tested on: Escherichia coli (ATCC11775); assay: Inhibition zone assay (agar plate); assay type: cell-based; conditions: for inhibition zone diameter (number of plus signs): agar plate, 50 nanomoles/well, 3 mm wells
E. coli Apid^R = assay: Minimal inhibitory concentration (liquid culture); assay type: cell-based; conditions: a-b = highest concentration with growth - lowest without growth
Text: For details see `Experimental Procedures`.

[3] = tested on: Acinetobacter calcoaceticus; assay: Inhibition zone assay (agar plate); assay type: cell-based; conditions: for inhibition zone diameter (number of plus signs): agar plate, 50 nanomoles/well, 3 mm wells
Enterobacter cloacae = assay: Inhibition zone assay (agar plate); assay type: cell-based; conditions: for inhibition zone diameter (number of plus signs): agar plate, 50 nanomoles/well, 3 mm wells
Rhizobium meliloti = assay: Inhibition zone assay (agar plate); assay type: cell-based; conditions: 50 nanomoles/well, 3 mm wells
Escherichia coli (K514) = assay type: cell-based; conditions: agar plate, 50 nanomoles/well, 3 mm wells
Campylobacter jejuni = assay: Inhibition zone assay (agar plate); assay type: cell-based; conditions: 50 nanomoles/well, 3 mm wells
Legionella pneumophila = assay type: cell-based; conditions: agar plate, 50 nanomoles/well, 3 mm wells
[4] = 50 nanomoles per well (3 mm diameter)

Row | Compound | minimal inhibitory concentration (MIC) (Y. enterocolitica) [µg/mL] | minimal inhibitory concentration (MIC) (E. coli 23802) [µg/mL] | inhibition zone diameter (number of plus signs) (Klebsiella pneumoniae) | minimal inhibitory concentration (MIC) (S. typhimurium) [µg/mL] | inhibition zone diameter (number of plus signs) (Erwinia amylovora) | inhibition zone diameter (number of plus signs) (Yersinia enterocolitica) | inhibition zone diameter (number of plus signs) (Salmonella typhimurium) | minimal inhibitory concentration (MIC) (M. morganii) [µg/mL] | minimal inhibitory concentration (MIC) (A. calcoaceticus) [µg/mL] | inhibition zone diameter (number of plus signs) [1] | minimal inhibitory concentration (MIC) (E. coli 25922) [µg/mL] | minimal inhibitory concentration (MIC) (E. coli 11775; inoculum 16 × 10^6 CFU/ml) [µg/mL] | minimal inhibitory concentration (MIC) (E. coli 11775; inoculum 1200 CFU/ml) [µg/mL] | inhibition zone diameter (number of plus signs) (Haemophilus influenzae) | inhibition zone diameter (number of plus signs) (Pseudomonas syringae) | inhibition zone diameter (number of plus signs) [2] | minimal inhibitory concentration (MIC) (E. coli Apid^R; inoculum 1000 CFU/ml) [µg/mL] | inhibition zone diameter (number of plus signs) [3] | inhibition zone diameter (number of plus signs) (Enterobacter cloacae) | inhibition zone diameter (number of plus signs) (Rhizobium meliloti) | other results
1 | CC(C)C[C@H](NC(=O)[C@H](CCCNC(=N)N)NC(=O)[C@@H]1CCCN1C(=O)[C@H](Cc1c[nH]cn1)NC(=O)[C@@H]1CCCN1C(=O)[C@@H]1CCCN1C(=O)[C@H](CCCNC(=N)N)NC(=O)[C@@H]1CCCN1C(=O)[C@@H]1CCCN1C(=O)[C@@H](NC(=O)[C@H](CCC(N)=O)NC(=O)[C@H](CCC(N)=O)NC(=O)[C@@H]1CCCN1C(=O)[C@H](CCCNC(=N)N)NC(=O)[C@@H]1CCCN1C(=O)[C@H](CCCCN)NC(=O)CN)C(C)C)C(=O)O [Ho +, G K P R P Q Q V P P R P P H P R L] (H-GKPRPQQVPPRPPHPRL-OH) | 1 to 5 | 0.5 to 1 | +++ ((+++) 10-14 mm) | 0.5 to 1 | +++ ((+++) 10-14 mm) | ++++ ((++++) 15-19 mm) | +++ ((+++) 10-14 mm) | 1 to 5 | 2 to 10 | ++ ((++) 7-9 mm) | 0.1 to 0.5 | 0.1 to 0.5 | 0.1 to 0.5 | +++ ((+++) 10-14 mm) | +++ ((+++) 10-14 mm) | +++ ((+++) 10-14 mm) | 1 to 5 | + ((+) 5-6 mm) | +++ ((+++) 10-14 mm) | ++++ ((++++) 15-19 mm) | inhibition zone diameter (number of plus signs) (Morganella morganii): ++ ((++) 7-9 mm); Inhibition zones: in mm diameter (Klebsiella pneumoniae; [4]): 15 mm; Inhibition zones: in mm diameter (Erwinia amylovora; [4]): 12 mm; Inhibition zones: in mm diameter (Shigella dysenteriae; [4]): 18 mm; Inhibition zones: in mm diameter (Salmonella typhimurium; [4]): 14 mm; Inhibition zones: in mm diameter (Salmonella typhi): 20 mm; Inhibition zones: in mm diameter [1, 4]: 12 mm; inoculum effect on inhibition of viability (E. coli 11775; inoculum sizes differing by four orders of magnitude): equally well; Inhibition zones: in mm diameter (E. coli D22): 14 mm; Inhibition zones: in mm diameter (Pseudomonas syringae; [4]): 13 mm; Inhibition zones: in mm diameter [2, 4]: 15 mm; Inhibition zones: in mm diameter [3, 4]: 5 mm; Inhibition zones: in mm diameter (Enterobacter cloacae; [4]): 15 mm
2 | CC[C@H](C)[C@H](NC(=O)[C@@H]1CCCN1C(=O)[C@H](C)NC(=O)[C@@H]1CCCN1C(=O)[C@H](CCCNC(=N)N)NC(=O)[C@@H]1CCCN1C(=O)[C@H](CCCCN)NC(=O)[C@H](CC(N)=O)NC(=O)[C@@H]1CCCN1C(=O)[C@H](CCCCN)NC(=O)CN)C(=O)N[C@@H](CCCCN)C(=O)N1CCC[C@H]1C(=O)N[C@@H](CCCNC(=N)N)C(=O)N1CCC[C@H]1C(=O)N1CCC[C@H]1C(=O)N[C@@H](Cc1c[nH]cn1)C(=O)N1CCC[C@H]1C(=O)N[C@@H](CCCNC(=N)N)C(=O)N[C@@H](CC(C)C)C(=O)O [Cd 2+, Gly--Lys--Pro--Asn--Lys--Pro--Arg--Pro--Ala--Pro--Ile--Lys--Pro--Arg--Pro--Pro--His--Pro--Arg--Leu] (H-GKPNKPRPAPIKPRPPHPRL-OH) | 10 to 20 | 0.1 to 0.5 | ++ ((++) 7-9 mm) | 0.1 to 0.5 | ++ ((++) 7-9 mm) |  | +++ ((+++) 10-14 mm) | 1 to 5 | 10 to 20 | +++ ((+++) 10-14 mm) | 0.1 to 0.5 | 0.1 to 0.5 | 0.1 to 0.5 | ++++ ((++++) 15-19 mm) | +++ ((+++) 10-14 mm) | +++ ((+++) 10-14 mm) | 0.5 to 1 | + ((+) 5-6 mm) | +++ ((+++) 10-14 mm) | ++++ ((++++) 15-19 mm) | inhibition zone diameter (number of plus signs) (Escherichia coli (K514)): ++ ((++) 7-9 mm); inhibition zone diameter (number of plus signs) (Morganella morganii): ++ ((++) 7-9 mm); inhibition zone diameter (number of plus signs) (Campylobacter jejuni): +++++ ((+++++) 20 or more min); minimal inhibitory concentration (MIC) (E. coli Apid^R; inoculum 12 × 10^6 CFU/ml): 0.5 to 1.5 µg/mL; minimal inhibitory concentration (MIC) (E. coli Apid^R; inoculum 12 × 10^6 CFU/ml, listed as Cd2+): measurable activities
3 | CC[C@H](C)[C@H](NC(=O)[C@H](Cc1ccc(O)cc1)NC(=O)[C@@H](NC(=O)[C@@H]1CCCN1C(=O)[C@H](CCCNC(=N)N)NC(=O)[C@H](CC(N)=O)NC(=O)[C@H](C)N)C(C)C)C(=O)N1CCC[C@H]1C(=O)N1CCC[C@H]1C(=O)N1CCC[C@H]1C(=O)N[C@@H](CCCNC(=N)N)C(=O)N1CCC[C@H]1C(=O)N1CCC[C@H]1C(=O)N[C@@H](Cc1c[nH]cn1)C(=O)N1CCC[C@H]1C(=O)N[C@@H](CCCNC(=N)N)C(=O)N[C@@H](CC(C)C)C(=O)O [Bb+A] (H-ANRPVYIPPPRPPHPRL-OH) | 5 to 10 | 10 to 20 | ++ ((++) 7-9 mm) | 0.5 to 1 | ++++ ((++++) 15-19 mm) | +++ ((+++) 10-14 mm) | +++ ((+++) 10-14 mm) | 20 to 40 | 2 to 10 | ++++ ((++++) 15-19 mm) | 0.5 to 1 | 0.5 to 1 | 0.05 to 0.1 | +++ ((+++) 10-14 mm) | +++++ ((+++++) 20 or more min) | ++++ ((++++) 15-19 mm) | > 40 | ++ ((++) 7-9 mm) | +++ ((+++) 10-14 mm) | ++++ ((++++) 15-19 mm) | inhibition zone diameter (number of plus signs) (Shigella dysenteriae; agar plate, 50 nanomoles/well, 3 mm wells): + +++; inhibition zone diameter (number of plus signs) (Legionella pneumophila): ++ ((++) 7-9 mm); minimal inhibitory concentration (MIC) (E. coli Apid^R; inoculum 12 × 10^6 CFU/ml): > 40 µg/mL
4 | CC[C@H](C)[C@H](NC(=O)[C@H](Cc1ccc(O)cc1)NC(=O)[C@@H](NC(=O)[C@@H]1CCCN1C(=O)[C@H](CCCNC(=N)N)NC(=O)[C@@H](N)CC(N)=O)C(C)C)C(=O)N1CCC[C@H]1C(=O)N1CCC[C@H]1C(=O)N1CCC[C@H]1C(=O)N[C@@H](CCCNC(=N)N)C(=O)N1CCC[C@H]1C(=O)N1CCC[C@H]1C(=O)N[C@@H](Cc1c[nH]cn1)C(=O)N1CCC[C@H]1C(=O)N[C@@H](CCCNC(=N)N)C(=O)N[C@@H](CC(C)C)C(=O)O [Bb-A] (H-NRPVYIPPPRPPHPRL-OH) | 1 to 5 | 10 to 20 | ++ ((++) 7-9 mm) | 0.5 to 1 | ++++ ((++++) 15-19 mm) | +++ ((+++) 10-14 mm) | +++ ((+++) 10-14 mm) | > 40 | > 20 | ++++ ((++++) 15-19 mm) | 1 to 5 | 1 to 5 | 0.1 to 0.5 | ++ ((++) 7-9 mm) | ++++ ((++++) 15-19 mm) | ++++ ((++++) 15-19 mm) | > 40 | ++ ((++) 7-9 mm) | +++ ((+++) 10-14 mm) | +++++ ((+++++) 20 or more min) | inhibition zone diameter (number of plus signs) (Legionella pneumophila): + ((+) 5-6 mm); minimal inhibitory concentration (MIC) (E. coli Apid^R; inoculum 12 × 10^6 CFU/ml): > 40 µg/mL
